Source: ChEMBL document CHEMBL1201862, “PubChem BioAssay data set” (2004)
Where “and” joins values, the source holds several entries; their conditions need not be identical. Equal values may be shown once. Calls of active or inactive are those of the source.

Tests used:
[1] = target: T1, RNA-binding protein pos-1 (Caenorhabditis elegans, UniProt G5EF15); assay: disruptors of C. elegans POS-1 RNA interaction – biochemical, fluorescence polarization, dose response (AID 1964);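 also: purified POS-1 fused to maltose binding protein made in E. coli; potency of compounds blocking POS-1 binding to fluorescent RNA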
T1 sequence (G5EF15 whole entry): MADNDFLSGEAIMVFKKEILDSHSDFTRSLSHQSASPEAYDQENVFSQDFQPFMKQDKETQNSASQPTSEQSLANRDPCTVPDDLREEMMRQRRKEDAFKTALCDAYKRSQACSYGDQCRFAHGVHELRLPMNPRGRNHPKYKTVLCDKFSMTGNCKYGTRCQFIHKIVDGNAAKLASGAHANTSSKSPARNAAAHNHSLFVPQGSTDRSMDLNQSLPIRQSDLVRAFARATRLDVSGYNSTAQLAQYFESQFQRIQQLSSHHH

BJ [2] = assay: BJ-TERT fibroblast viability loss – cell-based, RAS-independent, luminescence, dose response (AID 1933); assay type: functional; conditions: Homo sapiens
[3] = target: T2, Zinc finger protein mex-5 (Caenorhabditis elegans, UniProt Q9XUB2); assay: potency of MEX-5 RNA-binding blockers – biochemical, C. elegans, fluorescence polarization, dose response (AID 1960)
T2 sequence (Q9XUB2 whole entry): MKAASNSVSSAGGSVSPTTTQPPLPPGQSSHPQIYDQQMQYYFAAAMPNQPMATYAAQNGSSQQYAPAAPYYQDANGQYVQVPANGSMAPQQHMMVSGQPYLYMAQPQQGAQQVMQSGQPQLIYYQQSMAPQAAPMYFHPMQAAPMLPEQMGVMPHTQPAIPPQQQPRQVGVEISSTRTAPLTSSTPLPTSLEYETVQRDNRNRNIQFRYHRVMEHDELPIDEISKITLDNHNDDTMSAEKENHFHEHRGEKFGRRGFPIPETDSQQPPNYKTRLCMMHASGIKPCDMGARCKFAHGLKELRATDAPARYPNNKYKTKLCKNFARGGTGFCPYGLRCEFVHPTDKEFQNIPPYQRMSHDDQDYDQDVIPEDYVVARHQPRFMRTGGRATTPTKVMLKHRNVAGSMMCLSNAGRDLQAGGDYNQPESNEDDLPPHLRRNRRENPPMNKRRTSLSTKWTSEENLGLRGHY

BJ [4] = assay: cells; assay type: functional, cell-based; conditions: Homo sapiens
BJ [5] = assay: BJ-TERT-LT-ST fibroblast viability loss – cell-based, RAS-independent, luminescence, dose response (AID 1935); assay type: functional; conditions: Homo sapiens;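 also: BJ fibroblasts immortalized with TERT plus LT and ST oncogenes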
[6] = DRD fibroblast viability loss – cell-based, non-viral oncogenic, luminescence, dose response (AID 1934); assay type: functional; conditions: Homo sapiens
[7] = target: T3, Replicative DNA helicase DnaB (Mycobacterium tuberculosis, UniProt P9WMR3); assay: DnaB intein splicing inhibitors, dose response, biochemical, cell-free fluorescence (AID 449749); assay type: functional
T3 sequence (P9WMR3 whole entry): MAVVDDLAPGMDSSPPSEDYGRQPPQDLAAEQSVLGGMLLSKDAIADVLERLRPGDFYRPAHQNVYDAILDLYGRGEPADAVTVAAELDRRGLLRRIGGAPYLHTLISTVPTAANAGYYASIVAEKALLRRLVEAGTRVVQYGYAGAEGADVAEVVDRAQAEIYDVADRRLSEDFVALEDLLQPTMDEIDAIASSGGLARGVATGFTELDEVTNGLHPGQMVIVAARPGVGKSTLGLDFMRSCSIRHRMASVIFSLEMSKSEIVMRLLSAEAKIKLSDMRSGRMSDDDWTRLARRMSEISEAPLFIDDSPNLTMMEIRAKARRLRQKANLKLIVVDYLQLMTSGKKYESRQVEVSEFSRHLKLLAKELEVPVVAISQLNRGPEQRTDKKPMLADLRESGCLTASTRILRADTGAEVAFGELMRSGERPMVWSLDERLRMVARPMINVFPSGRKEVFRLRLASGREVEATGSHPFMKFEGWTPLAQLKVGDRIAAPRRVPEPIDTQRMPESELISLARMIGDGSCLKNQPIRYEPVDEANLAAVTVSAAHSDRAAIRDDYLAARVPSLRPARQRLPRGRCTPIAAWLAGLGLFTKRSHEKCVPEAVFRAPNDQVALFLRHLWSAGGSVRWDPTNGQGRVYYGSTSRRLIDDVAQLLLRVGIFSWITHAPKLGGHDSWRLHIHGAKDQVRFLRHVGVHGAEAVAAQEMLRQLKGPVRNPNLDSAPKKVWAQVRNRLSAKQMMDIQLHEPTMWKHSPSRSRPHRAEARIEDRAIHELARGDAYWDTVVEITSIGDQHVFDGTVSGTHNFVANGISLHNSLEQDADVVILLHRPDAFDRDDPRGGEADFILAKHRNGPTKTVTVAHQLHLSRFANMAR

Vero = assay: viability of Vero cells under compound – cytotoxicity control for flavivirus capping enzyme inhibitors (AID 588742); assay type: functional; conditions: Chlorocebus sabaeus
Protein RecA = target: T4, Protein RecA (Mycobacterium tuberculosis, UniProt P9WHJ3); assay: Fluorescence Cell-Free Homogeneous Dose Retest to Identify Inhibitors of RecA-Intein Splicing Activity. [Related pubchem assays (depositor defined):AID2097, AID2223, AID489010, AID492950]; assay type: functional
T4 sequence (P9WHJ3 whole entry): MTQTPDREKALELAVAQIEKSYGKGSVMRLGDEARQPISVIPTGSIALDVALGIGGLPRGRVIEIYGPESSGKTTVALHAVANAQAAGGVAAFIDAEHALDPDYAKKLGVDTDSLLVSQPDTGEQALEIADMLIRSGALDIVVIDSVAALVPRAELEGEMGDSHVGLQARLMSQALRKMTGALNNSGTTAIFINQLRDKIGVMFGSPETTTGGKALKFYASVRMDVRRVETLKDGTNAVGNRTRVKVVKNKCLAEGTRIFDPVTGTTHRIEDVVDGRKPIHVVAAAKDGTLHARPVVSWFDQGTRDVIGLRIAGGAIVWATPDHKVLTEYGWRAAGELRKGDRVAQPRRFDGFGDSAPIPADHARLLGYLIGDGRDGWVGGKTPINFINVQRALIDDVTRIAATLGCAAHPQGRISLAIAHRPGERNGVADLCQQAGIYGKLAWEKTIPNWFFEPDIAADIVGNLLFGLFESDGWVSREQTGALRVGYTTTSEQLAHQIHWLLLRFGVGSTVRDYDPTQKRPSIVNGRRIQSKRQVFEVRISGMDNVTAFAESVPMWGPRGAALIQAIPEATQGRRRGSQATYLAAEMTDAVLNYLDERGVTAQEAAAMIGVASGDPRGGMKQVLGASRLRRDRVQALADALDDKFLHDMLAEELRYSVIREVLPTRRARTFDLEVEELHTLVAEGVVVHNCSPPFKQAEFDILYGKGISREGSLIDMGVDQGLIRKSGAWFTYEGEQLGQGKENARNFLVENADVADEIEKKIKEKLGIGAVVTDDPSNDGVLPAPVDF

Genome polyprotein = Genome polyprotein (dengue virus type 2, UniProt P29990); assay: flavivirus cap methylation enzyme inhibition – biochemical, confirmation dose response, primary screen (AID 588689); assay type: functional
Sequence of Genome polyprotein (P29990 2492-3391 limits assumed): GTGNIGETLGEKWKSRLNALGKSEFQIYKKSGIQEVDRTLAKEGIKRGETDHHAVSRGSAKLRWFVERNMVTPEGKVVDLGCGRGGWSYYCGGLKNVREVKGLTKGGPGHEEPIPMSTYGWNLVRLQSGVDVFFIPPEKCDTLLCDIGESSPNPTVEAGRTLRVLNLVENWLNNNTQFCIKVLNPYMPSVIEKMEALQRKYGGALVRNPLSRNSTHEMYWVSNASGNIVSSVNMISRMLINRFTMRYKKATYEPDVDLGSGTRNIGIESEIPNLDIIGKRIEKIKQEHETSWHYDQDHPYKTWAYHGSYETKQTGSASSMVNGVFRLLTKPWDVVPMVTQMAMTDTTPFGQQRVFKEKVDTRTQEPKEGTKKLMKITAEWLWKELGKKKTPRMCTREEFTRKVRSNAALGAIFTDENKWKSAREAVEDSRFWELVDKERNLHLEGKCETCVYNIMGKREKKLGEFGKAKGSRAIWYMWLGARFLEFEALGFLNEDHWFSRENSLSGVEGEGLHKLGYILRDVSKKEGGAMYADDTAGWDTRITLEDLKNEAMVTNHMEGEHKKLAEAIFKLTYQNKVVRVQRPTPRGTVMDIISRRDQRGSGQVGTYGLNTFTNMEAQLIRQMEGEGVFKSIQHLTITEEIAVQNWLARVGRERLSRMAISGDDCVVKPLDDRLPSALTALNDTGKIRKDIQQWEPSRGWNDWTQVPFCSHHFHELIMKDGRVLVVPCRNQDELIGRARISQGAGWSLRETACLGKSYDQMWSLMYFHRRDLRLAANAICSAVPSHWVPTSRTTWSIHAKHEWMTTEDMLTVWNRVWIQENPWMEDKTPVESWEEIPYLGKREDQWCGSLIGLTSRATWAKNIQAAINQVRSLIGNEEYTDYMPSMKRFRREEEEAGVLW

Protein Tat = Protein Tat (Human immunodeficiency virus type 1 group M subtype B (isolate HXB2)(HIV-1), UniProt P04608); assay type: functional;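 also: tat binding to TAR RNA read out by fluorescence polarization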
Sequence of Protein Tat (P04608 whole entry): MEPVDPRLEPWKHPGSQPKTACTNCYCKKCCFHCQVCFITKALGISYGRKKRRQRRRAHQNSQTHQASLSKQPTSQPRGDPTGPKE

[8] = viability loss in THP-1 monocytes – THP-1 cells, cytotoxicity control for Vif-APOBEC3G degradation inhibitor project, dose response (AID 1117359); assay type: functional; conditions: THP-1
[9] = target: Glutathione-S-transferase (Schistosoma japonicum, UniProt Q26513); assay: GST-antibody interaction or FRET quenching – biochemical, TR-FRET, artefact control for Vif-APOBEC3G degradation inhibitor project, dose response (AID 1117362); assay type: functional
Sequence of Glutathione-S-transferase (Q26513 whole entry): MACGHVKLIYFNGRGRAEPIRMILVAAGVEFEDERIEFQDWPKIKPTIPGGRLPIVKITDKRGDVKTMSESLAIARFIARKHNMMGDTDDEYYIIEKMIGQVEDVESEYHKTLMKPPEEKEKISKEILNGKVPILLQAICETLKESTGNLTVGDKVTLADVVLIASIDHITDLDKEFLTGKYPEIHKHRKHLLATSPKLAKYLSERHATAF

[10] = target: T5, Tyrosine-protein phosphatase non-receptor type 7 (Homo sapiens, UniProt P35236); assay: HePTP tyrosine phosphatase activity blockers – biochemical, absorbance, leukemia target, primary screen (AID 521); assay type: functional
T5 sequence (P35236 whole entry): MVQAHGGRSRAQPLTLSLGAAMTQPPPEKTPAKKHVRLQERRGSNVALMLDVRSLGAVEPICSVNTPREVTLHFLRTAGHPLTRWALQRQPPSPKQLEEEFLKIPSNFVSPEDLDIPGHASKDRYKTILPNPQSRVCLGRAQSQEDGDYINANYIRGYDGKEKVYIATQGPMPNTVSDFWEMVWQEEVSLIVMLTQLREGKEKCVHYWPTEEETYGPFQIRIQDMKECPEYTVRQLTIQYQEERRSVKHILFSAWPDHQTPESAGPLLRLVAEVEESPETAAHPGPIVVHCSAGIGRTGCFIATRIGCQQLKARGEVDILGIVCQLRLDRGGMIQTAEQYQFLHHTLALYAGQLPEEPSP

[11] = target: Sphingosine 1-phosphate receptor 2 (Homo sapiens, UniProt O95136); assay: Dose Response Cell Based Assay for Antagonists of the S1P2 Receptor. [Related pubchem assays: 856, 736 ]; assay type: functional
Sequence of Sphingosine 1-phosphate receptor 2 (O95136 whole entry): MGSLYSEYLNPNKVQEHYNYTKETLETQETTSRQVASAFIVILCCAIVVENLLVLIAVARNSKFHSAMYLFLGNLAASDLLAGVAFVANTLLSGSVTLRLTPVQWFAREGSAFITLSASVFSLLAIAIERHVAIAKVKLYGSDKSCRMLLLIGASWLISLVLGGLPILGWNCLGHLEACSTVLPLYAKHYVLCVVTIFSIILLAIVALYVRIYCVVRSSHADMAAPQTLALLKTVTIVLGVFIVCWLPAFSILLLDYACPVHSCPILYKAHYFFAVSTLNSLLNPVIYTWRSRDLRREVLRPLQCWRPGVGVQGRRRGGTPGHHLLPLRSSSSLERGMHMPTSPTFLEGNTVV

[12] = TAG accumulation blockers, Nile Red lipid stain – cell-based, H9c2 rat cardiomyoblasts, Nile Red fluorescence, primary readout, dose response (AID 743161); assay type: functional

## O=C1C=C(Nc2cccc3cccnc23)c2ccccc2C1=O
[1]
  EC50: 47.6 µM (active)
BJ [2]
  EC50: 1.57 µM (inconclusive)
[3]
  EC50: 28.7 µM (active)
BJ [4]
  EC50: 3.05 µM (active)
BJ [5]
  EC50: 6.37 µM (inconclusive)
[6]
  EC50: 2.77 µM (inconclusive)
[7]
  AC50: > 380 µM (inactive)
Vero
  CC50: 4.45 µM (active)
Protein RecA
  EC50: 2.89 µM (active)
Genome polyprotein
  IC50: 50.4 µM (active)
Protein Tat
  IC50: > 100 µM (active)
[8]
  CC50: 0.34 µM (active)
[9]
  IC50: > 100 µM (active)

## O=C(CCSCCC(=O)NCc1ccco1)NCc1ccco1
[10]
  IC50: 4.15 µM (active)

## O=C(Nc1ccc(F)cc1)c1sc2cc(C(F)(F)F)cnc2c1-c1cccs1
[11]
  IC50: 2.73 µM (active) and 2.06 µM (active)

## COCCN1Cc2cccc(C(=O)NCc3cccc(N(C)C)c3)c2C1=O
[12]
  IC50: > 50 µM (active)
